This passage reports IC50 results from patent US10071086B2, “1H-pyrazolo[3,4-b]pyridines and therapeutic uses thereof” (Samumed, LLC, priority 2012, dated 2018).

This assay concerns Wnt pathway. Briefly: Wnt activity reporter assay (SP5 promoter-luciferase in SW480 cells). Type of assay: cell-based. The following applies: Homo sapiens, SP5 promoter firefly luciferase reporter, read-out: Wnt inhibition. The source says: The above synthesized compounds were screened using the assay procedure for Wnt activity described below.
Reporter cell lines can be generated by stably transducing cells of cancer cell lines (e.g., colon cancer) with a lentiviral construct that include a wnt-responsive promoter driving expression of the firefly luciferase gene.
Lentiviral constructs can be made in which the SP5 promoter, a promoter having eight TCF/LEF binding sites derived from the SP5 promoter, is linked upstream of the firefly luciferase gene. The lentiviral constructs can also include a hygromycin resistance gene as a selectable marker. The SP5 promoter construct can be used to transduce SW480 cells, a colon cancer cell line having a mutated APC gene that generates a truncated APC protein, leading to de-regulated accumulation of β-catenin.
Cultured SW480 cells bearing a reporter construct can be distributed at approximately 10,000 cells per well into 96 well or 384 well plates. Compounds from a small molecule compound library can then be added to the wells in half-log dilutions using a ten micromolar top concentration. A series of control wells for each cell type receive only buffer and compound solvent. Twenty-four to forty hours after the addition of compound, reporter activity for luciferase can be assayed, for example, by addition of the BrightGlo luminescence reagent (Promega) and the Victor3 plate reader (Perkin Elmer). Readings can be normalized to DMSO only treated cells, and normalized activities can then be used in the IC50 calculations.
As for `CC(C)Nc1cncc(-c2cnc3[nH]nc(-c4nc5c(-c6ccncc6)cncc5[nH]4)c3c2)c1` [Compound 198, N-Isopropyl-5-(3-(7-(pyridin-4-yl)-3H-imidazo[4,5-c]pyridin-2-yl)-1H-pyrazolo[3,4-b]pyridin-5-yl)pyridin-3-amine], the IC50 was 1130 nM.

For the compound `c1ccc(CNCc2cncc(-c3cnc4[nH]nc(-c5nc6c(-c7ccncc7)cncc6[nH]5)c4c3)c2)cc1` [Compound 209, N-Benzyl-1-(5-(3-(7-(pyridin-4-yl)-3H-imidazo[4,5-c]pyridin-2-yl)-1H-pyrazolo[3,4-b]pyridin-5-yl)pyridin-3-yl)methanamine], the IC50 is 9800 nM.

Regarding `O=C(Nc1cncc(-c2cnc3[nH]nc(-c4nc5c(-c6ccccn6)cncc5[nH]4)c3c2)c1)C1CCC1` [Compound 229, N-(5-(3-(7-(Pyridin-2-yl)-3H-imidazo[4,5-c]pyridin-2-yl)-1H-pyrazolo[3,4-b]pyridin-5-yl)pyridin-3-yl)cyclobutanecarboxamide], the IC50 came out at 12 nM.

For the compound `Nc1cncc(-c2cnc3[nH]nc(-c4nc5c(N6CCCCC6)cncc5[nH]4)c3c2)c1` [Compound 238, 5-(3-(7-(Piperidin-1-yl)-3H-imidazo[4,5-c]pyridin-2-yl)-1H-pyrazolo[3,4-b]pyridin-5-yl)pyridin-3-amine], the IC50 worked out at 350 nM.

In the case of `CCNCc1cncc(-c2cnc3[nH]nc(-c4nc5c(N6CCCCC6)cncc5[nH]4)c3c2)c1` [Compound 241, N-((5-(3-(7-(Piperidin-1-yl)-3H-imidazo[4,5-c]pyridin-2-yl)-1H-pyrazolo[3,4-b]pyridin-5-yl)pyridin-3-yl)methyl)ethanamine], the IC50 was found to be 190 nM.

For `O=C(Nc1cncc(-c2cnc3[nH]nc(-c4nc5c(N6CCCCC6)cncc5[nH]4)c3c2)c1)c1ccccc1` [Compound 246, N-(5-(3-(7-(Piperidin-1-yl)-3H-imidazo[4,5-c]pyridin-2-yl)-1H-pyrazolo[3,4-b]pyridin-5-yl)pyridin-3-yl)benzamide], the IC50 stood at 1270 nM.

On to `c1ncc(-c2cnc3[nH]nc(-c4nc5c(N6CCCCC6)cncc5[nH]4)c3c2)cc1CN1CCCC1` [Compound 249, 3-(7-(Piperidin-1-yl)-3H-imidazo[4,5-c]pyridin-2-yl)-5-(5-(pyrrolidin-1-ylmethyl)pyridin-3-yl)-1H-pyrazolo[3,4-b]pyridine], for which the IC50 was 10000 nM.

For the compound `O=C(Nc1cncc(-c2cnc3[nH]nc(-c4nc5c(N6CCCCC6)cncc5[nH]4)c3c2)c1)C1CC1` [Compound 254, N-(5-(3-(7-(Piperidin-1-yl)-3H-imidazo[4,5-c]pyridin-2-yl)-1H-pyrazolo[3,4-b]pyridin-5-yl)pyridin-3-yl)cyclopropanecarboxamide], the IC50 is 235 nM.

For `CCCCC(=O)Nc1cncc(-c2cnc3[nH]nc(-c4nc5c(N6CCN(C)CC6)cncc5[nH]4)c3c2)c1` [Compound 305, N-(5-(3-(7-(4-Methylpiperazin-1-yl)-3H-imidazo[4,5-c]pyridin-2-yl)-1H-pyrazolo[3,4-b]pyridin-5-yl)pyridin-3-yl)pentanamide], the IC50 amounted to 7350 nM.

For the compound `CN1CCN(c2cncc3[nH]c(-c4n[nH]c5ncc(-c6cncc(NC(=O)C7CCCCC7)c6)cc45)nc23)CC1` [Compound 309, N-(5-(3-(7-(4-Methylpiperazin-1-yl)-3H-imidazo[4,5-c]pyridin-2-yl)-1H-pyrazolo[3,4-b]pyridin-5-yl)pyridin-3-yl)cyclohexanecarboxamide], the IC50 was 1020 nM.

On to `CC(C)Nc1cncc(-c2cnc3[nH]nc(-c4nc5ccncc5[nH]4)c3c2)c1` [Compound 325, 5-(3-(3H-Imidazo[4,5-c]pyridin-2-yl)-1H-pyrazolo[3,4-b]pyridin-5-yl)-N-isopropylpyridin-3-amine], for which the IC50 was 58 nM.

For the compound `c1ccc(CNCc2cncc(-c3cnc4[nH]nc(-c5nc6ccncc6[nH]5)c4c3)c2)cc1` [Compound 336, 1-(5-(3-(3H-Imidazo[4,5-c]pyridin-2-yl)-1H-pyrazolo[3,4-b]pyridin-5-yl)pyridin-3-yl)-N-benzylmethanamine], the IC50 came out at 790 nM.

On to `CN(C)c1cncc(-c2cnc3[nH]nc(-c4nc5c(-c6ccsc6)cncc5[nH]4)c3c2)c1` [Compound 346, N,N-Dimethyl-5-(3-(7-(thiophen-3-yl)-3H-imidazo[4,5-c]pyridin-2-yl)-1H-pyrazolo[3,4-b]pyridin-5-yl)pyridin-3-amine], for which the IC50 stood at 56 nM.

For `CN(C)Cc1cncc(-c2cnc3[nH]nc(-c4nc5c(-c6ccsc6)cncc5[nH]4)c3c2)c1` [Compound 352, N,N-Dimethyl-1-(5-(3-(7-(thiophen-3-yl)-3H-imidazo[4,5-c]pyridin-2-yl)-1H-pyrazolo[3,4-b]pyridin-5-yl)pyridin-3-yl)methanamine], the IC50 amounted to 57 nM.

With `c1cc(-c2cncc3[nH]c(-c4n[nH]c5ncc(-c6cncc(CN7CCCCC7)c6)cc45)nc23)cs1` [Compound 354, 5-(5-(Piperidin-1-ylmethyl)pyridin-3-yl)-3-(7-(thiophen-3-yl)-3H-imidazo[4,5-c]pyridin-2-yl)-1H-pyrazolo[3,4-b]pyridine], the IC50 stood at 293 nM.

On to `CC(C)(C)C(=O)Nc1cncc(-c2cnc3[nH]nc(-c4nc5c(-c6ccoc6)cncc5[nH]4)c3c2)c1` [Compound 373, N-(5-(3-(7-(Furan-3-yl)-3H-imidazo[4,5-c]pyridin-2-yl)-1H-pyrazolo[3,4-b]pyridin-5-yl)pyridin-3-yl)pivalamide], for which the IC50 worked out at 70 nM.

With `O=C(Nc1cncc(-c2cnc3[nH]nc(-c4nc5c(-c6ccoc6)cncc5[nH]4)c3c2)c1)c1ccccc1` [Compound 376, N-(5-(3-(7-(Furan-3-yl)-3H-imidazo[4,5-c]pyridin-2-yl)-1H-pyrazolo[3,4-b]pyridin-5-yl)pyridin-3-yl)benzamide], the IC50 is 51 nM.

On to `CCCC(=O)Nc1cncc(-c2cnc3[nH]nc(-c4nc5c(-c6ccoc6)cncc5[nH]4)c3c2)c1` [Compound 382, N-(5-(3-(7-(Furan-3-yl)-3H-imidazo[4,5-c]pyridin-2-yl)-1H-pyrazolo[3,4-b]pyridin-5-yl)pyridin-3-yl)butyramide], for which the IC50 was found to be 3 nM.

Regarding `CCC(=O)Nc1cncc(-c2cnc3[nH]nc(-c4nc5c(-c6cccs6)cncc5[nH]4)c3c2)c1` [Compound 440, N-(5-(3-(7-(Thiophen-2-yl)-3H-imidazo[4,5-c]pyridin-2-yl)-1H-pyrazolo[3,4-b]pyridin-5-yl)pyridin-3-yl)propionamide], the IC50 came out at 4 nM.

For `c1cncc(-c2cnc3[nH]nc(-c4nc5c(-c6cccs6)cncc5[nH]4)c3c2)c1` [Compound 443, 5-(Pyridin-3-yl)-3-(7-(thiophen-2-yl)-3H-imidazo[4,5-c]pyridin-2-yl)-1H-pyrazolo[3,4-b]pyridine], the IC50 was determined as 1 nM.

Regarding `O=C(Nc1cncc(-c2cnc3[nH]nc(-c4nc5c(-c6cccs6)cncc5[nH]4)c3c2)c1)C1CC1` [Compound 458, N-(5-(3-(7-(Thiophen-2-yl)-3H-imidazo[4,5-c]pyridin-2-yl)-1H-pyrazolo[3,4-b]pyridin-5-yl)pyridin-3-yl)cyclopropanecarboxamide], the IC50 worked out at 22 nM.

As to `c1csc(-c2cncc3[nH]c(-c4n[nH]c5ncc(-c6cncc(CNCC7CCCC7)c6)cc45)nc23)c1` [Compound 463, 1-Cyclopentyl-N-((5-(3-(7-(thiophen-2-yl)-3H-imidazo[4,5-c]pyridin-2-yl)-1H-pyrazolo[3,4-b]pyridin-5-yl)pyridin-3-yl)methyl)methanamine], the IC50 stood at 98 nM.

Regarding `CCNCc1cncc(-c2cnc3[nH]nc(-c4nc5c(-c6cccc(F)c6)cccc5[nH]4)c3c2)c1` [Compound 547, N-((5-(3-(4-(3-Fluorophenyl)-1H-benzo[d]imidazol-2-yl)-1H-pyrazolo[3,4-b]pyridin-5-yl)pyridin-3-yl)methyl)ethanamine], the IC50 was 97 nM.

Turning to `CC(C)Nc1cncc(-c2cnc3[nH]nc(-c4nc5c(-c6cccc(F)c6)cccc5[nH]4)c3c2)c1` [Compound 551, 5-(3-(4-(3-Fluorophenyl)-1H-benzo[d]imidazol-2-yl)-1H-pyrazolo[3,4-b]pyridin-5-yl)-N-isopropylpyridin-3-amine], the IC50 was 33 nM.

For the compound `CN(C)Cc1cncc(-c2cnc3[nH]nc(-c4nc5c(-c6cccc(F)c6)cccc5[nH]4)c3c2)c1` [Compound 552, 1-(5-(3-(4-(3-Fluorophenyl)-1H-benzo[d]imidazol-2-yl)-1H-pyrazolo[3,4-b]pyridin-5-yl)pyridin-3-yl)-N,N-dimethylmethanamine], the IC50 amounted to 22 nM.

In the case of `Fc1cccc(-c2cccc3[nH]c(-c4n[nH]c5ncc(-c6cncc(CN7CCCCC7)c6)cc45)nc23)c1` [Compound 554, 3-(4-(3-Fluorophenyl)-1H-benzo[d]imidazol-2-yl)-5-(5-(piperidin-1-ylmethyl)pyridin-3-yl)-1H-pyrazolo[3,4-b]pyridine], the IC50 worked out at 200 nM.

`CCCCC(=O)Nc1cncc(-c2cnc3[nH]nc(-c4nc5c(-c6cccc(F)c6)cccc5[nH]4)c3c2)c1` [Compound 557, N-(5-(3-(4-(3-Fluorophenyl)-1H-benzo[d]imidazol-2-yl)-1H-pyrazolo[3,4-b]pyridin-5-yl)pyridin-3-yl)pentanamide]: the IC50 worked out at 53 nM.

With `O=C(Nc1cncc(-c2cnc3[nH]nc(-c4nc5c(-c6cccc(F)c6)cccc5[nH]4)c3c2)c1)C1CCCC1` [Compound 560, N-(5-(3-(4-(3-Fluorophenyl)-1H-benzo[d]imidazol-2-yl)-1H-pyrazolo[3,4-b]pyridin-5-yl)pyridin-3-yl)cyclopentanecarboxamide], the IC50 is 90 nM.
